A short description of the data set: Rheological characterization of hydrogel compositions (shear and extensional rheology). In kind it is physicochemical. Conditions: for change of crossover frequency compared to the Sangelose only hydrogel: 3 wt % Sangelose with 0.75 wt % second agent (αCD 0.05 wt %), 25° C.; for storage modulus (G′) compared to Sangelose only hydrogels / tan (delta) compared to Sangelose only hydrogels: measured at 0.1 rad·s^−1, 3 wt % Sangelose with second agent; for G′ values compared to hydrogels comprising only Sangelose (Tween comparison): at a frequency of 10 rad·s^−1, 3 wt % Sangelose, 0.75 wt % Tween. The procedure: Rheological characterization was performed using a 20-mm diameter serrated parallel plate at a 500-μm gap on a TA Instruments DHR-2 stress-controlled rheometer. All measurements were performed at 25° C. Frequency sweep measurements were performed at a constant 1% strain. Steady shear flow sweeps were performed from high to low shear rates. Stress sweeps were performed from low to high with steady-state sensing and yield stress values defined as the stress at which the viscosity decreases 10% from the maximum. Amplitude sweep measurements were performed at a frequency of 0.1 rad·s^-1. P values are calculated with a one-way ANOVA followed by post hoc Tukey multiple comparison test unless otherwise noted. Extensional rheology was performed on a TA Instruments ARES-G2 rheometer in axial mode using an 8-mm parallel plate geometry (R=4 mm) at a H=4 mm gap, resulting in an aspect ratio of H/R=1. A sample volume of 400 μl was loaded for each of the three replicated measurements. All experiments were performed at 25° C. Samples of the hydrogel compositions were loaded and tested immediately within seconds to minimize dehydration. […] (exponential) strain rates were applied at three different strain rates.

Entries after “also recorded” stand apart in the source; their conditions may differ.

Span 20: the “change of crossover frequency compared to the Sangelose only hydrogel” value (“change of crossover frequency” below) is reported as “did not change the crossover frequency”.

For `OCC1O[C@@H]2O[C@@H]3C(CO)O[C@H](O[C@@H]4C(CO)O[C@H](O[C@@H]5C(CO)O[C@H](O[C@@H]6C(CO)O[C@H](O[C@@H]7C(CO)O[C@H](O[C@H]1[C@H](O)[C@H]2O)[C@H](O)[C@H]7O)[C@H](O)[C@H]6O)[C@H](O)[C@H]5O)[C@H](O)[C@H]4O)[C@H](O)[C@H]3O` (stereo partly drawn) [αCD, α-cyclodextrin], the “change of crossover frequency” value was “shift rightward”, the “storage modulus (G′) compared to Sangelose only hydrogels” value was “lower than the storage modulus of the Sangelose only hydrogels” and the “tan (delta) compared to Sangelose only hydrogels” value is “higher than the tan (delta) values of the Sangelose only hydrogels”.

With “polyoxyethylene (20) sorbitan monolaurate [Tween 20]”, the “change of crossover frequency” value is given as “shift rightward”, the “G′ values compared to hydrogels comprising only Sangelose (Tween comparison)” value is given as “lower G′ values”, the “storage modulus (G′) compared to Sangelose only hydrogels” value is “lower than the storage modulus of the Sangelose only hydrogels” and the “tan (delta) compared to Sangelose only hydrogels” value is “higher than the tan (delta) values of the Sangelose only hydrogels; also recorded: significantly higher tan (delta) values”.

Regarding “polyoxyethylene (20) sorbitan monopalmitate [Tween 40]”, the “G′ values compared to hydrogels comprising only Sangelose (Tween comparison)” value was “lower G′ values” and the “tan (delta) compared to Sangelose only hydrogels” value is recorded as “significantly higher tan (delta) values”.

“polyoxyethylene (20) sorbitan monooleate [Tween 80]”: the “change of crossover frequency” value is given as “shift rightward”, the “G′ values compared to hydrogels comprising only Sangelose (Tween comparison)” value was “lower G′ values”, the “storage modulus (G′) compared to Sangelose only hydrogels” value was “lower than the storage modulus of the Sangelose only hydrogels” and the “tan (delta) compared to Sangelose only hydrogels” value is “higher than the tan (delta) values of the Sangelose only hydrogels; also recorded: significantly higher tan (delta) values”.
